Assay results as given in patent publication US12331069B2, “DOT1L degraders and uses thereof” (DANA-FARBER CANCER INSTITUTE, INC., priority 2019, dated 2025).

Columns and labels:
RPN13 = RPN13 (Homo sapiens, UniProt Q16186); experiment: Biochemical (alpha signal) assay for inhibitors that disrupt the binding of RPN13 with poly-ubiquitinylation; settings: FIG. 9C
Excerpt: The assay was optimized based on concentrations of the target inhibitors, concentrations of compound RA190, and in view of the alpha signal. The conditions for the biochemical assay are recognized by those of ordinary skill in the art.

[1] = tested on: HL60 (human leukemia) cells; experiment: Relative cell growth by cell count, HL60 cells (negative control line); format: cell-based; settings: concentrations between 0 and 10 μM, after 10 days, effect with increased concentration
Procedure: (§1) FIGS. 12A-12D show a Western blot of an assay where MOLM 13 cells were treated with exemplary DOT1L degraders and then the cell numbers were counted over time to confirm the cellular activity of the cells. FIGS. 12A-12D show the relative cell growth (%), based on a cell count of acute myeloid leukemia cells upon the treatment of Molm13 PA cells, Molm13 RE cells, and human leukemia (HL60; as negative control) cells with exemplary DOT1L degraders at various concentrations in for 10 days.
(§2) Molm13 PA (acute myeloid leukemia), Molm13 RE (acute myeloid leukemia), and HL60 (human leukemia) cells were treated with exemplary thalidomide-based, DOT1L degrader compounds DOT1L-6, DOT1L-7, DOT1L-8, and RA190 at various concentrations between 0 and 10 μM. The relative cell growth of the Molm13 PA, Molm13 RE, and HL60 cells was measured to analyze cellular activity after 10 days.

[2] = tested on: Molm13 PA and Molm13 RE (acute myeloid leukemia) cells; experiment: Relative cell growth by cell count, Molm13 PA and Molm13 RE cells; format: cell-based; settings: concentrations between 0 and 10 μM, after 10 days, effect with increased concentration
Procedure: as §1, §2

Sequence of RPN13 (Q16186 whole entry): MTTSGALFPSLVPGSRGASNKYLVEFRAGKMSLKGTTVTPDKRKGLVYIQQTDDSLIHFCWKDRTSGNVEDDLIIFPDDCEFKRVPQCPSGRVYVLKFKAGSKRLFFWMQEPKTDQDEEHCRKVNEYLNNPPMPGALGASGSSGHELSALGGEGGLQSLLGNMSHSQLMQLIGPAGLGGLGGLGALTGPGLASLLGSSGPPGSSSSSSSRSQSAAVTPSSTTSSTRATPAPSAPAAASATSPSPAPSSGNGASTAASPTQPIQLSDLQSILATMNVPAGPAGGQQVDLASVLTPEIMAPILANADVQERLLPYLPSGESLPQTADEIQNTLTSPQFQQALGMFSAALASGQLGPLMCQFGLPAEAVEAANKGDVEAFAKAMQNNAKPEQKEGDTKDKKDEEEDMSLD

In the case of `N[C@@H](Cc1ccccc1)C(=O)N1C/C(=C\c2ccc(Cl)c(Cl)c2)C(=O)/C(=C/c2ccc(Cl)c(Cl)c2)C1` [RA190], the “Disruption of the binding of RPN13 with poly-ubiquitinylation” value (RPN13) is reported as “can disrupt the binding”, the “Relative cell growth (based on cell count)” value [1] is reported as “reduced cell growth” and the “Relative cell growth (based on cell count)” value [2] is reported as “reduced cell growth”.
